Source: US9580437B2, “Triazolopyrimidine compounds and uses thereof” (Novartis AG, priority 2014, dated 2017)
pIC50: −log10 of the molar value.

Columns and labels:
[1] = molecular target: EED (1-441)-His protein (Homo sapiens (Human), UniProt O75530); assay: EED-H3K27Me3 peptide competition binding assay by AlphaScreen; details: read-out: (a) IC50 EED Alphascreen binding Qualified
Description: EED-H3K27Me3 peptide competition binding assay by AlphaScreen (α-screen)

[2] = molecular target: wild type PRC2 (wtPRC2) complex (Homo sapiens (Human), UniProt O75530); assay: EED LC-MS assay; assay type: biochemical; details: read-out: (b) IC50 EED LC-MS Qualified
Chain of wild type PRC2 (wtPRC2) complex (O75530 whole entry): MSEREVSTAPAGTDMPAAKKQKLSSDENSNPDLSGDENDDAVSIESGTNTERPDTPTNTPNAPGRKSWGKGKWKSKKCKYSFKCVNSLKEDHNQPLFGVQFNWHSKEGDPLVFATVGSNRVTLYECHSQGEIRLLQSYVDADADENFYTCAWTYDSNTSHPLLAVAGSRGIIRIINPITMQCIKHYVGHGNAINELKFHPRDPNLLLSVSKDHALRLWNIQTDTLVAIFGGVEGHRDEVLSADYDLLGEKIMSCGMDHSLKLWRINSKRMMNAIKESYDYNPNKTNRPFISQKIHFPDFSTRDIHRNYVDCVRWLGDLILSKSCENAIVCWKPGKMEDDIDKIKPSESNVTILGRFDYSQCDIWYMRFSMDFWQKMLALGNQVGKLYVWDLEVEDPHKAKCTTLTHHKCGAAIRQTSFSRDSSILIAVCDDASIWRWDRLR
Chain of wild type PRC2 (wtPRC2) complex (Q15910 whole entry partner): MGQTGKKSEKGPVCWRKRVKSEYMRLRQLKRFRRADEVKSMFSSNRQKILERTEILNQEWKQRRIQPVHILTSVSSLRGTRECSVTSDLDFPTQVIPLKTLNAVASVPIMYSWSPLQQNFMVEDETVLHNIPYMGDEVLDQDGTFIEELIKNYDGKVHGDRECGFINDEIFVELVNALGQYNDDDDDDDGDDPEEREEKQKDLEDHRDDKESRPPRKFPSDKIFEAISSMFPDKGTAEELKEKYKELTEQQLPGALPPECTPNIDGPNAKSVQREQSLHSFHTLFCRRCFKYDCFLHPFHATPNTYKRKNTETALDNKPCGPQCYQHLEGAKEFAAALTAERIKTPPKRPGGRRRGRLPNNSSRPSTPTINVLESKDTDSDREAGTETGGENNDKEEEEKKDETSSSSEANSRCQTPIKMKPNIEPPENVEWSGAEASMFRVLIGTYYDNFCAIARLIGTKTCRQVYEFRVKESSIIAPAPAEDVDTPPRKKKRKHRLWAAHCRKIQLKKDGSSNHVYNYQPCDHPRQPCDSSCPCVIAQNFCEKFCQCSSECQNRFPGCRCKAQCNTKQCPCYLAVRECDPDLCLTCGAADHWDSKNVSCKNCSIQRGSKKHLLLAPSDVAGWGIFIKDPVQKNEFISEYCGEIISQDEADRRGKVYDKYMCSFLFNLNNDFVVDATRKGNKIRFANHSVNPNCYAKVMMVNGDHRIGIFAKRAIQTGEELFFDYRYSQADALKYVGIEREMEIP
Chain of wild type PRC2 (wtPRC2) complex (Q15022 whole entry partner): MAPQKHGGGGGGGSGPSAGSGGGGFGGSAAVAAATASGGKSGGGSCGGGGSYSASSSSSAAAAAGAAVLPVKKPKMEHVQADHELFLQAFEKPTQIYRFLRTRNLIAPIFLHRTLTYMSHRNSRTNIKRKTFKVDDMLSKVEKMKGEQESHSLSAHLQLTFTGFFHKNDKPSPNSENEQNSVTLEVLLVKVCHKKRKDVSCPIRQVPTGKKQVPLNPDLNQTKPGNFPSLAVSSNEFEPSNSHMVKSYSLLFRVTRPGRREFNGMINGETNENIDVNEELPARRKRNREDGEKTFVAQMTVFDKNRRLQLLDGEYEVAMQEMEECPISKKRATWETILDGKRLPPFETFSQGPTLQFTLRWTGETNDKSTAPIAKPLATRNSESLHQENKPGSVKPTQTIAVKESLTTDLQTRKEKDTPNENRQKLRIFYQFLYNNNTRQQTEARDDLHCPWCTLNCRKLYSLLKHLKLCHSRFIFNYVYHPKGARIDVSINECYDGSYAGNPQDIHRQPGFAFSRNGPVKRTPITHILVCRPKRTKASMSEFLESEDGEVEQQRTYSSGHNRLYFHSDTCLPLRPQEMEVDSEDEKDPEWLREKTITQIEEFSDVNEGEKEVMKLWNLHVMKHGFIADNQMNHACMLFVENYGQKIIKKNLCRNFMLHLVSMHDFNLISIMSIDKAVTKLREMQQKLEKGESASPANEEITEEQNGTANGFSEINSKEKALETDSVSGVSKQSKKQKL
Experimental: A 6 μL solution of 3 μM of the peptide substrate H3K27Me0 (histone H3[21-44]-biotin) in reaction buffer was added to initiate each reaction. […] ELISA (H3K27 Methylation) Assay

Chain of EED (1-441)-His protein (O75530 whole entry): as the sequence (O75530 whole entry) above

Molecule `Cc1nccc(-c2cnc(NCc3c(F)ccc4c3CCO4)n3cnnc23)c1C` [Example 177, 8-(2,3-dimethylpyridin-4-yl)-N-((5-fluoro-2,3-dihydrobenzofuran-4-yl)methyl)-[1,2,4]triazolo[4,3-c]pyrimidin-5-amine] has a pIC50 [1] of 8.42 and a pIC50 [2] of 8.36.
Molecule `Cc1cc(C#N)ccc1-c1cnc(NCc2c(F)ccc3c2CCO3)n2cnnc12` [Example 178, 4-(5-(((5-fluoro-2,3-dihydrobenzofuran-4-yl)methyl)amino)-[1,2,4]triazolo[4,3-c]pyrimidin-8-yl)-3-methylbenzonitrile] has a pIC50 [1] of 8.27 and a pIC50 [2] of 8.15.
`Cc1nn(C2CC2)c(C)c1-c1cnc(NCc2c(F)ccc3c2CCO3)n2cnnc12` [Example 179, 8-(1-cyclopropyl-3,5-dimethyl-1H-pyrazol-4-yl)-N-((5-fluoro-2,3-dihydrobenzofuran-4-yl)methyl)-[1,2,4]triazolo[4,3-c]pyrimidin-5-amine] showed a pIC50 [1] of 7.91 and a pIC50 [2] of 7.79.
Molecule `Cc1c(-c2cnc(NCc3c(F)ccc4c3CCO4)n3cnnc23)ccnc1F` [Example 180, N-((5-fluoro-2,3-dihydrobenzofuran-4-yl)methyl)-8-(2-fluoro-3-methylpyridin-4-yl)-[1,2,4]triazolo[4,3-c]pyrimidin-5-amine] has a pIC50 [1] of 8.14 and a pIC50 [2] of 8.10.
`Cc1c(-c2cnc(NCc3c(F)ccc4c3CCO4)n3cnnc23)ccnc1C(F)F` [Example 181, 8-(2-(difluoromethyl)-3-methylpyridin-4-yl)-N-((5-fluoro-2,3-dihydrobenzofuran-4-yl)methyl)-[1,2,4]triazolo[4,3-c]pyrimidin-5-amine] was tested, and the pIC50 [1] was 8.59 and the pIC50 [2] was 8.22.
For `Cc1c(-c2cnc(NCc3c(F)ccc4c3CCO4)n3cnnc23)ccnc1CF` [Example 182, N-((5-fluoro-2,3-dihydrobenzofuran-4-yl)methyl)-8-(2-(fluoromethyl)-3-methylpyridin-4-yl)-[1,2,4]triazolo[4,3-c]pyrimidin-5-amine], the pIC50 [1] was 8.51 and the pIC50 [2] was 8.25.
`Cc1cnc(F)cc1-c1cnc(NCc2c(F)ccc3c2CCO3)n2cnnc12` [Example 183, N-((5-fluoro-2,3-dihydrobenzofuran-4-yl)methyl)-8-(2-fluoro-5-methylpyridin-4-yl)-[1,2,4]triazolo[4,3-c]pyrimidin-5-amine] gave a pIC50 [1] of 8.32 and a pIC50 [2] of 8.09.
In the case of `Cc1cnc(C(F)(F)F)cc1-c1cnc(NCc2c(F)ccc3c2CCO3)n2cnnc12` [Example 184, N-((5-fluoro-2,3-dihydrobenzofuran-4-yl)methyl)-8-(5-methyl-2-(trifluoromethyl)pyridin-4-yl)-[1,2,4]triazolo[4,3-c]pyrimidin-5-amine], the pIC50 [1] was 8.27 and the pIC50 [2] was 7.88.
For `Fc1ccc2c(c1CNc1ncc(-c3ccnc(C(F)(F)F)c3)c3nncn13)CCO2` [Example 185, N-((5-fluoro-2,3-dihydrobenzofuran-4-yl)methyl)-8-(2-(trifluoromethyl)pyridin-4-yl)-[1,2,4]triazolo[4,3-c]pyrimidin-5-amine], the pIC50 [1] was 8.36 and the pIC50 [2] was 8.17.
With `Cc1nn(C[C@@H](C)O)c(C)c1-c1cnc(NCc2c(F)ccc3c2CCO3)n2cnnc12` [Example 186, (2R)-1-(4-(5-(((5-fluoro-2,3-dihydrobenzofuran-4-yl)methyl)amino)-[1,2,4]triazolo[4,3-c]pyrimidin-8-yl)-3,5-dimethyl-1H-pyrazol-1-yl)propan-2-ol] the pIC50 [1] was 8.46 and the pIC50 [2] was 8.22.
`Cc1nn(C[C@H](C)O)c(C)c1-c1cnc(NCc2c(F)ccc3c2CCO3)n2cnnc12` [Example 187, (2S)-1-(4-(5-(((5-fluoro-2,3-dihydrobenzofuran-4-yl)methyl)amino)-[1,2,4]triazolo[4,3-c]pyrimidin-8-yl)-3,5-dimethyl-1H-pyrazol-1-yl)propan-2-ol] gave a pIC50 [1] of 8.09 and a pIC50 [2] of 7.90.
`Cc1c(-c2cnc(NCc3c(F)ccc4c3CCO4)n3cnnc23)cnn1C(C)C` [Example 188, N-((5-fluoro-2,3-dihydrobenzofuran-4-yl)methyl)-8-(1-isopropyl-5-methyl-1H-pyrazol-4-yl)-[1,2,4]triazolo[4,3-c]pyrimidin-5-amine] gave a pIC50 [1] of 8.64 and a pIC50 [2] of 8.42.
`Cc1c(-c2cnc(NCc3c(F)ccc4c3CCO4)n3cnnc23)cnn1CCO` [Example 189, 2-(4-(5-(((5-fluoro-2,3-dihydrobenzofuran-4-yl)methyl)amino)-[1,2,4]triazolo[4,3-c]pyrimidin-8-yl)-5-methyl-1H-pyrazol-1-yl)ethanol] gave a pIC50 [1] of 8.38 and a pIC50 [2] of 8.06.
With `Cc1nn(CCO)cc1-c1cnc(NCc2c(F)ccc3c2CCO3)n2cnnc12` [Example 190, 2-(4-(5-(((5-fluoro-2,3-dihydrobenzofuran-4-yl)methyl)amino)-[1,2,4]triazolo[4,3-c]pyrimidin-8-yl)-3-methyl-1H-pyrazol-1-yl)ethanol] the pIC50 [1] was 8.35 and the pIC50 [2] was 7.77.
`Fc1ccc2c(c1CNc1ncc(-c3cncnc3C(F)F)c3nncn13)CCO2` [Example 191, 8-(4-(difluoromethyl)pyrimidin-5-yl)-N-((5-fluoro-2,3-dihydrobenzofuran-4-yl)methyl)-[1,2,4]triazolo[4,3-c]pyrimidin-5-amine] was tested, and the pIC50 [1] was 8.42 and the pIC50 [2] was 7.88.
In the case of `Fc1ccc2c(c1CNc1ncc(-c3ccnn3C3CC3)c3nncn13)CCO2` [Example 192, 8-(1-cyclopropyl-1H-pyrazol-5-yl)-N-((5-fluoro-2,3-dihydrobenzofuran-4-yl)methyl)-[1,2,4]triazolo[4,3-c]pyrimidin-5-amine], the pIC50 [1] was 8.46 and the pIC50 [2] was 7.90.
Molecule `FCc1ncccc1-c1cnc(NCc2c(F)ccc3c2CCO3)n2cnnc12` [Example 193, N-((5-fluoro-2,3-dihydrobenzofuran-4-yl)methyl)-8-(2-(fluoromethyl)pyridin-3-yl)-[1,2,4]triazolo[4,3-c]pyrimidin-5-amine] has a pIC50 [1] of 8.40 and a pIC50 [2] of 7.89.
With `Cc1cc(-c2cnc(NCc3c(F)ccc4c3CCO4)n3cnnc23)c(C)cn1` [Example 194, 8-(2,5-dimethylpyridin-4-yl)-N-((5-fluoro-2,3-dihydrobenzofuran-4-yl)methyl)-[1,2,4]triazolo[4,3-c]pyrimidin-5-amine] the pIC50 [1] was 8.62 and the pIC50 [2] was 8.15.
Work on `Cc1nn(C)cc1-c1cnc(NCc2c(F)ccc3c2CCO3)n2cnnc12` [Example 195, 8-(1,3-dimethyl-1H-pyrazol-4-yl)-N-((5-fluoro-2,3-dihydrobenzofuran-4-yl)methyl)-[1,2,4]triazolo[4,3-c]pyrimidin-5-amine] yielded a pIC50 [1] of 8.23 and a pIC50 [2] of 7.94.
`CCOc1cc(C)c(-c2cnc(NCc3c(F)ccc4c3CCO4)n3cnnc23)cn1` [Example 196, 8-(6-ethoxy-4-methylpyridin-3-yl)-N-((5-fluoro-2,3-dihydrobenzofuran-4-yl)methyl)-[1,2,4]triazolo[4,3-c]pyrimidin-5-amine] gave a pIC50 [1] of 8.44 and a pIC50 [2] of 8.09.
`Cc1cc(OC(F)F)ncc1-c1cnc(NCc2c(F)ccc3c2CCO3)n2cnnc12` [Example 197, 8-(6-(difluoromethoxy)-4-methylpyridin-3-yl)-N-((5-fluoro-2,3-dihydrobenzofuran-4-yl)methyl)-[1,2,4]triazolo[4,3-c]pyrimidin-5-amine] gave a pIC50 [1] of 8.66 and a pIC50 [2] of 8.24.
Molecule `Cc1cnc(C(F)F)cc1-c1cnc(NCc2c(F)ccc3c2CCO3)n2cnnc12` [Example 198, 8-(2-(difluoromethyl)-5-methylpyridin-4-yl)-N-((5-fluoro-2,3-dihydrobenzofuran-4-yl)methyl)-[1,2,4]triazolo[4,3-c]pyrimidin-5-amine] has a pIC50 [1] of 8.36 and a pIC50 [2] of 7.76.
`Cc1nc(C(=O)N(C)C)ccc1-c1cnc(NCc2c(F)ccc3c2CCO3)n2cnnc12` [Example 199, 5-(5-(((5-fluoro-2,3-dihydrobenzofuran-4-yl)methyl)amino)-[1,2,4]triazolo[4,3-c]pyrimidin-8-yl)-N,N,6-trimethylpicolinamide] was tested, and the pIC50 [1] was 8.38 and the pIC50 [2] was 8.14.
Molecule `Cn1cc(-c2cnc(NCc3c(F)ccc4c3CCO4)n3cnnc23)c(C(F)F)n1` [Example 200, 8-(3-(difluoromethyl)-1-methyl-1H-pyrazol-4-yl)-N-((5-fluoro-2,3-dihydrobenzofuran-4-yl)methyl)-[1,2,4]triazolo[4,3-c]pyrimidin-5-amine] has a pIC50 [1] of 8.12 and a pIC50 [2] of 8.02.
`Cc1ccc(-c2cnc(NCc3c(F)ccc4c3CCO4)n3cnnc23)c(C(F)F)n1` [Example 201, 8-(2-(difluoromethyl)-6-methylpyridin-3-yl)-N-((5-fluoro-2,3-dihydrobenzofuran-4-yl)methyl)-[1,2,4]triazolo[4,3-c]pyrimidin-5-amine] gave a pIC50 [1] of 8.23 and a pIC50 [2] of 8.14.
Work on `Fc1ccc2c(c1CNc1ncc(-c3ccnnc3)c3nncn13)CCO2` [Example 202, N-((5-fluoro-2,3-dihydrobenzofuran-4-yl)methyl)-8-(pyridazin-4-yl)-[1,2,4]triazolo[4,3-c]pyrimidin-5-amine] yielded a pIC50 [1] of 8.02 and a pIC50 [2] of 7.73.
`Cc1ncccc1-c1c(C)nc(NCc2c(F)ccc3c2CCO3)n2cnnc12` [Example 203, N-((5-fluoro-2,3-dihydrobenzofuran-4-yl)methyl)-7-methyl-8-(2-methylpyridin-3-yl)-[1,2,4]triazolo[4,3-c]pyrimidin-5-amine] gave a pIC50 [1] of 7.37 and a pIC50 [2] of 6.47.
`Cc1c(-c2cnc(NCc3c(F)ccc4c3CCO4)n3cnnc23)ccc[n+]1[O-]` [Example 204, 3-(5-(((5-fluoro-2,3-dihydrobenzofuran-4-yl)methyl)amino)-[1,2,4]triazolo[4,3-c]pyrimidin-8-yl)-2-methylpyridine 1-oxide] showed a pIC50 [1] of 7.97 and a pIC50 [2] of 7.71.
`Fc1ccc2c(c1CNc1ncc(-c3cnccn3)c3nncn13)CCO2` [Example 205, N-((5-fluoro-2,3-dihydrobenzofuran-4-yl)methyl)-8-(pyrazin-2-yl)-[1,2,4]triazolo[4,3-c]pyrimidin-5-amine] showed a pIC50 [1] of 8.14 and a pIC50 [2] of 8.09.
